Molecules are shown by their SMILES. Counter-ions that a name gives are not always drawn.

Common to all, as to assay type: functional
Conditions in all cases: read-out: IZ

In assay [1] the test system is Bacillus subtilis. The assay is described as follows: Antimicrobial activity against Bacillus subtilis ATCC 6633 at 0.6 ug.
The test system of assay [2] is Escherichia coli. The assay is described as follows: Antimicrobial activity against Escherichia coli B ATCC 11303 at 6 ug.
The test system of assay [3] is Penicillium digitatum. Nature of the assay: Antimicrobial activity against Penicillium digitatum at 40 ug.
For assay [4], the system named is Saccharomyces cerevisiae. The assay is described as follows: Antimicrobial activity against Saccharomyces cerevisiae at 400 ug.
In assay [5] the test system is Escherichia coli. Nature of the assay: Antimicrobial activity against Escherichia coli B ATCC 11303 at 400 ug.
The test system of assay [6] is Bacillus subtilis. The assay is described as follows: Antimicrobial activity against Bacillus subtilis ATCC 6633 at 400 ug.
The test system of assay [7] is Penicillium digitatum. The assay is described as follows: Antimicrobial activity against Penicillium digitatum at 24 ug.
For assay [8], the system named is Saccharomyces cerevisiae. The assay is described as follows: Antimicrobial activity against Saccharomyces cerevisiae at 24 ug.

In the case of `CN[C@@H]1[C@H](O[C@H]2[C@H](O[C@H]3[C@H](O)[C@@H](O)[C@H](N=C(N)N)[C@@H](O)[C@@H]3N=C(N)N)O[C@@H](C)[C@]2(O)C=O)O[C@@H](CO)[C@H](O)[C@H]1O` [STREPTOMYCIN SULFATE], in the assay with Bacillus subtilis [1], the zone of inhibition at 0.6 µg/disc is 16 mm. Further, the zone of inhibition at 6 µg/disc in the assay with Escherichia coli [2] came to 17 mm.
Regarding `COC(=O)c1c(C)cc(O)c(C)c1O` [ATRARIC ACID], in the assay on Penicillium digitatum [3], the zone of inhibition at 40 µg/disc came out at 29 mm. For the same compound, the zone of inhibition at 400 µg/disc in the assay with Saccharomyces cerevisiae [4] turned out to be 18 mm; with Escherichia coli [5] it was 15 mm; in the assay on Bacillus subtilis [6] it was 17 mm.
For `CCCCC[C@@H](O)[C@H]1C(=O)O[C@H](C)[C@@H](O)/C=C/C=C/C=C/C=C/C=C(\C)[C@@H](O)C[C@H](O)C[C@H](O)C[C@H](O)C[C@H](O)C[C@H](O)C[C@@H]1O` [FILIPIN], the zone of inhibition at 24 µg/disc in the assay with Penicillium digitatum [7] is 29 mm; with Saccharomyces cerevisiae [8] it was 21 mm.

The record behind these values is ChEMBL document CHEMBL1151646, “Methyl -Orcinolcarboxylate and Depsides from Parmelia furfuracea” (1985).
